The target of experiment [1] is T1, NR1a/NR2B NMDA receptor (Rattus norvegicus, UniProt P35439+Q00960).
T1 construct: expressed in transfected cells
As to the kind of experiment: Functional NMDA antagonism, fluorimetric intracellular calcium measurement on HEK293 cells expressing NR1a/NR2B. The class given is cell-based. How it is done: Compounds were tested for their inhibitory action on NMDA evoked cytosolic calcium elevations in fluorescent calcium measurements. Studies were performed 48-72 h after addition of the inducing agent. Ketamine (500 μM) was also present during the induction in order to prevent cytotoxicity.
(§1) Assessing the Functional NMDA Antagonist Potency of Compounds on HEK293 cells expressing Recombinant NMDA Receptors Based on Measuring the Intracellular Calcium Concentration Using a Fluorimeter Plate Reader
Since NMDA receptors are known to be permeable to calcium ions upon excitation, the extent of NMDA receptor activation, and its inhibition by functional antagonists can be characterised by measuring the rise in the intracellular calcium concentration following agonist (NMDA) application onto the cells.
The intracellular calcium measurements are carried out on HEK293 cells expressing NR1a and NR2B or NR2A NMDA receptor subunits.
(§2) Loading is stopped by washing twice with the solution used also during the measurement (140 mM NaCl 5 mM KCl, 2 mM CaCl2, 5 mM HEPES [4-(2-hydroxyethyl)-1-piperazineethane-sulfonic acid], 5 mM HEPES—Na, 20 mM glucose, 10 μM glycine, pH=7.4). Then the test compound dissolved in the above solution (90 μl/well) is added. Intracellular calcium measurements are carried out with a plate reader fluorimeter. A rise in Fluo-4-fluorescence that reflects the intracellular calcium concentration is induced by application of 200 μM NMDA. Inhibitory potency of the test compound is assessed by measuring the reduction in the calcium elevation in the presence of different concentrations of the compound.
(§3) Inhibitory potency of a compound at a single concentration point is expressed as percent inhibition of the control NMDA response. For NR1a/NR2B expressing cells concentration-inhibition curves are produced. Sigmoidal concentration-inhibition curves are fitted over the data and IC50 values are defined as the concentration that produces half of the maximal inhibition that could be achieved with the compound. Mean IC50 values are derived from at least three independent experiments. For NR1-3/NR2A expressing cells antagonism of NMDA induced rise in intracellular calcium concentration by compounds of the present invention and reference compounds was tested at 10 and 15 microM concentration, respectively.
On the technique in general: A change in cytosolic calcium serves as a functional read-out for many receptors and channels.

The target in experiment [2] is T2, NR1-3/NR2A NMDA receptor (Homo sapiens, UniProt Q05586+Q12879).
T2 construct: expressed in transfected cells
T2 sequence (Q12879 23-1464, other chains not shown): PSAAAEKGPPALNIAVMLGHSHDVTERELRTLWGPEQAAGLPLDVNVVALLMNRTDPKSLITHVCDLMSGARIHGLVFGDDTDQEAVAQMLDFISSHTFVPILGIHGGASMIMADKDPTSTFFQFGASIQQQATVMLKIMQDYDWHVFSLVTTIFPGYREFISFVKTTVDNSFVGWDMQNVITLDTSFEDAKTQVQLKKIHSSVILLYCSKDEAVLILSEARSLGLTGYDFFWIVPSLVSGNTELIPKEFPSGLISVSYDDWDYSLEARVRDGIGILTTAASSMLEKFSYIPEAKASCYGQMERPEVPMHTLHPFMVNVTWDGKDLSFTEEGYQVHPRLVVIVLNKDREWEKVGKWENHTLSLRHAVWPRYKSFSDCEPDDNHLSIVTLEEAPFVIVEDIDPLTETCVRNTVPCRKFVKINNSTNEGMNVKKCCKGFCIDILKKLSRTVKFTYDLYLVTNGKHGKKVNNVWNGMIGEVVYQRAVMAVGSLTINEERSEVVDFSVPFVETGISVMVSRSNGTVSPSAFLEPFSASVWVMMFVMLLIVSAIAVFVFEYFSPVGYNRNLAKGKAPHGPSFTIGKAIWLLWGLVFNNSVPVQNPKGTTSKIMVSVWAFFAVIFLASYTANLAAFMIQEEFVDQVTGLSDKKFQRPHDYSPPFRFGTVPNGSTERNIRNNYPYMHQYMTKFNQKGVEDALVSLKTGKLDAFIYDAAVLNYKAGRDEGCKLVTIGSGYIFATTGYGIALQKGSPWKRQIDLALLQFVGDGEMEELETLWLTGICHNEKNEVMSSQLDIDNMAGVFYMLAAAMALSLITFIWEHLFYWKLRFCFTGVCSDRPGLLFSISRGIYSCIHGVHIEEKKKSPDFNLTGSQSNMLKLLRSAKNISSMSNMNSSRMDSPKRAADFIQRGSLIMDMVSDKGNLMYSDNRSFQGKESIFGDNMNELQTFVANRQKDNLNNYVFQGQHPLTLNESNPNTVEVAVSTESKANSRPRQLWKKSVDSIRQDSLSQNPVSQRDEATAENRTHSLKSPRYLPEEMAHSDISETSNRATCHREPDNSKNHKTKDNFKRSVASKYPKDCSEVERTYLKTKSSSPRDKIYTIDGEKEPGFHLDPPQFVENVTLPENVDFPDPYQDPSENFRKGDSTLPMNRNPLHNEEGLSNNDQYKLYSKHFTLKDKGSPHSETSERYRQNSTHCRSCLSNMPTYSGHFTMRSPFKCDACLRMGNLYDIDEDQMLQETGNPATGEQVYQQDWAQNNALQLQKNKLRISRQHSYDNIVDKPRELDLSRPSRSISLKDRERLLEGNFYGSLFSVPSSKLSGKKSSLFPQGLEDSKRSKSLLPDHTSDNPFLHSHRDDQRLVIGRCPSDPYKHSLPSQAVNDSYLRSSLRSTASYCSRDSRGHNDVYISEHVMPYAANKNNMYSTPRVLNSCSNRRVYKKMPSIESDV
Description: Functional NMDA antagonism, fluorimetric intracellular calcium measurement on HEK293 cells expressing NR1-3/NR2A. The class given is cell-based. The settings on record: NMDA evoked calcium rise, NR1-3/NR2A transfected HEK293 cells; for inhibition at 15 µM: Table 1, 15 uM compound. As for the experimental part: (1997); Neurochemistry International, 43, 19-29. (2003)]. […] Compounds were tested for their inhibitory action on NMDA evoked cytosolic calcium elevations in fluorescent calcium measurements. Studies were performed 48-72 h after addition of the inducing agent. Ketamine (500 μM) was also present during the induction in order to prevent cytotoxicity.
as §1
Since NMDA receptors are known to be permeable to calcium ions upon excitation, the extent of NMDA receptor activation, and its inhibition by functional antagonists can be characterised by measuring the rise in the intracellular calcium concentration following agonist (NMDA) application onto the cells. Since there is very high sequence homology between rat and human NMDA receptors (99, 95, 97% for NR1, NR2A, and NR2B subunits, respectively), it is believed that there is little, if any, difference in their pharmacological sensitivity.
The intracellular calcium measurements are carried out on HEK293 cells expressing NR1a and NR2B or NR2A NMDA receptor subunits. Cells are plated onto standard 96-well microplates and the cultures are maintained in an atmosphere of 95% air-5% CO2 at 37° C. until testing.
as §2, with “The cells are loaded with a fluorescent Ca^2+-sensitive dye, Fluo-4/AM (2-2.5 μM) prior to testing. Loading” for “Loading”
as §3

The subject of experiment [3] is NMRI mice. Description: Mouse formalin test (second phase) for in vivo efficacy. The settings on record: for ED50 at 20 mg/kg: Mus musculus, po.
[4] abbreviates: Table 1, inhibition of calcium rise induced by 200 μM NMDA, NR1a/NR2B transfected HEK293 cells, read-out: NR1a/NR2B IC50.
The mark [5] stands for this setting: Table 2, reference compounds, 10 uM compound.
Where [6] appears, read: given 15 min before formalin, licking/biting time 20 to 25 min after formalin, >20 means inhibition less than 50% at 20 mg/kg p.o.
Setting [7] is: ip, mouse formalin test, read-out: ED50.

SMILES strings stand for the structures. Where two headings read alike, the source gives them in different places.

The source of these data is patent US20090170901A1, “Benzoyl Urea Derivatives” (priority 2004, published 2009).

By inhibition is commonly meant the drop in the measured response relative to a control, in per cent. The term ED50 denotes the midpoint of the dose-response relation.

T1 sequence (Q00960 27-1482, other chains not shown): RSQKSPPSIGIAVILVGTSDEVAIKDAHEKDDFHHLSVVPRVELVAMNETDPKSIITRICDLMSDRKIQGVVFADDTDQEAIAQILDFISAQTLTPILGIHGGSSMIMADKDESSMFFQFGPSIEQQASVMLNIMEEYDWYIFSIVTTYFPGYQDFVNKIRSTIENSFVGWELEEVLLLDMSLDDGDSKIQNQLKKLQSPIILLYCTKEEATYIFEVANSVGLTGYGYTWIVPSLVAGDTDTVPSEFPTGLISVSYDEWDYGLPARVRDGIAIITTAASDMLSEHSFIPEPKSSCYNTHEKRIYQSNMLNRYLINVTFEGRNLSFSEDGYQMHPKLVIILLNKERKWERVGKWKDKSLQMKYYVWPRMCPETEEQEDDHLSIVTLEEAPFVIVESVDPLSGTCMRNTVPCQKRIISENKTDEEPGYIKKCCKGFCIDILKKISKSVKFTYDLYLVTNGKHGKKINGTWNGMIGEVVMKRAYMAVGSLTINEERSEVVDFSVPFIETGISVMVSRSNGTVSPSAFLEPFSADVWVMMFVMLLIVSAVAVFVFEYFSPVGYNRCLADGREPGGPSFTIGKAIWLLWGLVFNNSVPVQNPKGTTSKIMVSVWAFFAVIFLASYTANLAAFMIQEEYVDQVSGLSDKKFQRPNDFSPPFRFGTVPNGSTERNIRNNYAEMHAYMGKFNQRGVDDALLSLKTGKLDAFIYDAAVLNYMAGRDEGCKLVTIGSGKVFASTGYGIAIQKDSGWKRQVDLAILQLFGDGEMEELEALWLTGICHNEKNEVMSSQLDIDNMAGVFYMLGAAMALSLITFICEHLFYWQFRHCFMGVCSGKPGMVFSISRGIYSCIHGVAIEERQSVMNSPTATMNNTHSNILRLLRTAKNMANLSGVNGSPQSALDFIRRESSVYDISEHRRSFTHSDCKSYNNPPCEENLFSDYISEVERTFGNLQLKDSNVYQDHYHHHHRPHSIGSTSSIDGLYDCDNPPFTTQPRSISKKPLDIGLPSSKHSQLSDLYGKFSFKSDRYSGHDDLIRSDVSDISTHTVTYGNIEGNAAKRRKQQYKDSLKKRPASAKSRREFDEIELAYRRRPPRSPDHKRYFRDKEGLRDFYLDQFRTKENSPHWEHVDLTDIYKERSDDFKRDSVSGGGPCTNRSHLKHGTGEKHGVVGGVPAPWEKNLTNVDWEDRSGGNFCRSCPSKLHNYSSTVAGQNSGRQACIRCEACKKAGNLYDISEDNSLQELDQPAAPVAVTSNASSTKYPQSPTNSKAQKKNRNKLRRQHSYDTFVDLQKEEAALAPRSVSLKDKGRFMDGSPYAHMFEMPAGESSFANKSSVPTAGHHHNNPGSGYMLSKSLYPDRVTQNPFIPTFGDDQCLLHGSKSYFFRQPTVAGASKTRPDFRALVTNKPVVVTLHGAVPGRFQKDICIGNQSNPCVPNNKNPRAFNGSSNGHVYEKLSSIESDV

As for `O=C(NC(=O)N1CCC(Cc2ccccc2)CC1)c1ccc(O)cc1` [Example 1, 4-Benzyl-piperidine-1-carboxylic Acid 4-hydroxy-benzoylamide], the IC50 in experiment [1] (setting [4]) was determined as 28 nM. The inhibition at 15 µM in experiment [2] came to 2.6%.
On to `O=C(CCN1CCC(Cc2ccc(F)cc2)CC1)c1ccc2[nH]c(=O)oc2c1` [EMD 95885, reference compound], for which the IC50 in experiment [1] (Table 2, reference compounds, inhibition of calcium rise induced by 200 μM NMDA, NR1a/NR2B transfected HEK293 cells, read-out: NR1a/NR2B IC50) stood at 48 nM. In experiment [2] (setting [5]), the “NR1-3/NR2A % inhibition at 10 uM” value was 0.1%. This compound had an ED50 in experiment [3] (p.o., given 15 min before formalin, licking/biting time 20 to 25 min after formalin, >20 means inhibition less than 50% at 20 mg/kg p.o.) of 3.7 mg/kg.
In the case of `O=C(NC(=O)N1CCC(Cc2ccccc2)CC1)c1ccc2[nH]c(=O)oc2c1` [Example 7, 4-Benzyl-piperidine-1-carboxylic Acid (2-oxo-2,3-dihydro-benzooxazole-6-carbonyl)-amide], the IC50 in experiment [1] (setting [4]) is 59.6 nM. Moreover, in experiment [2], the inhibition at 15 µM was -6.7%.
On to `Cc1ccc(CCC2CCN(C(=O)NC(=O)c3ccc(O)cc3)CC2)cc1` [Example 27, 4-[2-(p-Tolyl)-ethyl]-piperidine-1-carboxylic acid 4-hydroxy-benzoylamide], for which the IC50 in experiment [1] (setting [4]) stood at 14.3 nM. Besides, in experiment [2], the inhibition at 15 µM came to 11.4%.
The corresponding values for `O=C(NC(=O)N1CCC(CSc2ccccc2)CC1)c1ccc(O)cc1` [Example 28, 4-(Phenylthio-methyl)-piperidine-1-carboxylic Acid 4-hydroxy-benzoylamide] are 59.1 nM and -2.9%.
In experiment [3] (setting [6]), `O=c1[nH]c2ccc([S+]([O-])CCN3CCC(Cc4ccc(F)cc4)CC3)cc2o1` (centres unmarked) [CI-1041, 6-{2-[4-(4-fluoro-benzyl)-piperidin-1-yl]-ethanesulfinyl}-3H-benzooxazol-2-one] displayed a median effective dose (ED50) at 20 mg/kg of 2.4 mg/kg.
For `C[C@@H]([C@@H](O)c1ccc(O)cc1)N1CCC(O)(c2ccccc2)CC1` [CP 101,606, (1S,2S)-1-(4-hydroxyphenyl)-2-(4-hydroxy-4-phenylpiperidine-1-yl)-1-propanol], the ED50 at 20 mg/kg in experiment [3] (setting [6]) was more than 20 mg/kg.
Take `COc1ccc(CC2CCN(C(=O)NC(=O)c3ccc(O)cc3)CC2)cc1` [Example 2, 4-(4-Methoxy-benzyl)-piperidine-1-carboxylic Acid 4-hydroxy-benzoylamide]: the IC50 in experiment [1] (setting [4]) amounted to 7.6 nM. Further, the inhibition at 15 µM in experiment [2] was -5.7%.
As for `COc1cccc(CC2CCN(C(=O)NC(=O)c3ccc(O)cc3)CC2)c1` [Example 26, 4-(3-Methoxy-benzyl)-piperidine-1-carboxylic Acid 4-hydroxy-benzoylamide], in experiment [1] (setting [4]), the IC50 was 58.9 nM. The inhibition at 15 µM in experiment [2] was -0.9%.
For the compound `C[C@@H](CN1CCC(Cc2ccccc2)CC1)[C@@H](O)c1ccc(O)cc1` [Ro 25.6981, R—(R*,S*)-1-(4-hydroxyphenyl)-2-methyl-3-[4-(phenylmethyl)piperidin-1-yl]-1-propanol, reference compound], the IC50 in experiment [1] worked out at 57 nM. In experiment [2] (setting [5]), the inhibition at 10 µM is 1%. In addition, the ED50 at 20 mg/kg in experiment [3] (setting [6]) was more than 20 mg/kg. In experiment [3] (setting [7]), the ED50 stood at 5.1 mg/kg.
In experiment [3] (setting [6]), `Cc1ccc(CC2(O)CCN(CCOc3ccc(O)cc3)CC2)cc1` [Co-101244, 1-[2-(4-hydroxyphenoxy)ethyl]-4-hydroxy-4-(4-methylbenzyl)piperidine] registered an ED50 at 20 mg/kg of more than 20 mg/kg. The ED50 in experiment [3] (setting [7]) was determined as 5.9 mg/kg.
